Patent US8828442B2, “Pharmaceutical solid dispersions” (Bend Research, Inc., priority 1999, dated 2014)

Assay: In vitro dissolution test in Model Fasted Duodenal (MFD) solution, before storage
Format: physicochemical
Conditions: before aging; for AUC90 fresh: AUC from 0 to 90 minutes, MFD solution; for MDC fresh: maximum drug concentration, MFD solution pH 6.5, 37° C.
Excerpt: The concentration of dissolved drug is typically measured as a function of time by sampling the drug and plotting concentration vs. time so that the MDC can be ascertained. To avoid drug particulates which would give an erroneous determination, the test solution is either filtered or centrifuged. “Dissolved drug” is typically taken as that material that either passes a 0.45 μm syringe filter or, alternatively, the material that remains in the supernatant following centrifugation. Filtration can be conducted using a 13 mm, 0.45 μm polyvinylidine difluoride syringe filter sold by Scientific Resources under the trademark TITAN®. Centrifugation is typically carried out in a polypropylene microcentrifuge tube by centrifuging at 13,000 G for 60 seconds. Other similar filtration or centrifugation methods can be employed and useful results obtained. For example, using other types of microfilters may yield values somewhat higher or lower (±10-40%) than that obtained with the filter specified above but will still allow identification of preferred dispersions. It is recognized that this definition of “dissolved drug” encompasses not only monomeric solvated drug molecules but also a wide range of species such as polymer/drug assemblies that have submicron dimensions such as drug aggregates, aggregates of mixtures of polymer and drug, micelles, polymeric micelles, colloidal particles or nanocrystals, polymer/drug complexes, and other such drug-containing species that are present in the filtrate or supernatant in the specified dissolution test.
Dissolution performance of the material from Example 1, before exposure to increased temperature and humidity, was measured as follows. In a 37° C. controlled temperature box, 3.0 mg of the material of Example 1 was inserted into a polypropylene microcentrifuge tube (Sorenson Bioscience Inc.). The theoretical MDC in solution (i.e., if all drug dissolved) was 490 μg/ml [(3.0 mg×1000 μg/mg)×(0.33 g drug/g dispersion)×0.90 salt factor×0.98 drug assay/1.8 ml=490 μg/ml]. […] The tube was closed and a timer was started. […] Each sample was centrifuged, sampled and resuspended as described, then diluted with 250 μL HPLC grade methanol (Burdick & Jackson) and the concentration of drug was determined by HPLC. Samples were taken after 4, 10, 20, 40, and 90 minutes, analyzed, and drug concentrations for each time point were calculated. […]
In addition, the AUC90 value was calculated for Example 1. […] AUC between two individual time points within the curve was determined as follows. […] AUC90 is determined by calculating the sum of these areas defined by the drug concentrations observed at t1 and t2 equal to: 0 and 4 minutes, 4 and 10 minutes, 10 and 20 minutes, 20 and 40 minutes, and 40 and 90 minutes.

Compound	AUC90 fresh [ng·h/mL]	MDC fresh [µg/mL]
CCC(CC)Nc1cc(C)nc(Oc2c(C)cc(C)cc2C)c1C.Cl [Comparative Example C9, [3,6-Dimethyl-2-(2,4,6-trimethyl-phenoxy)-pyridin-4-yl]-(1-ethyl-propyl)-amine hydrogen chloride]	165000	135
CCC(CC)Nc1cc(C)nc(Oc2c(C)cc(C)cc2C)c1C [Comparative Example C10, [3,6-Dimethyl-2-(2,4,6-trimethyl-phenoxy)-pyridin-4-yl]-(1-ethyl-propyl)-amine]	23300	22
